Data set [1] can be described thus: Thermofluor analysis: melting temperature of polymerase constructs. The settings on record: polymerase itself. It counts as physicochemical. The procedure: Thermofluor analysis of HCV polymerases 1bWT, 1bΔ8, 2aWT, and 2aΔ8 was performed as previously described (36, 37) in the absence and presence of symmetrical primer-template pairs or fused hairpin primer-template RNA as described in Example 2.
(DSF heats the sample and reads unfolding from a dye or from intrinsic fluorescence.)

In data set [2] the target is T1, HCV polymerase 1b Δ8 S282T (Hepatitis C virus genotype 1b, UniProt P26663, DEL2863-2870/E2505Q/E2506Q/K2533R/L2466Q/R2963Q/S2701T/S2872G/Y2871G).
T1 construct: 1bΔ8 S282T; made in house; host or cells: E. coli Rosetta DE3
Nature of the data set: Inhibition assay (chain termination) with construct 1b Δ8 S282T. It is filed as biochemical, hepatitis C virus genotype 1b BK isolate.

For data set [3], the system named is HCV polymerase 1b Δ8 S282T. The description is as above. It is filed as biochemical, hepatitis C virus genotype 1b BK isolate. To be noted: upon introduction of S282T into 1b Δ8.
For data set [4], the target named is T2, HCV polymerase 1b S282T (Hepatitis C virus genotype 1b, UniProt P26663, E2505Q/E2506Q/K2533R/L2466Q/R2963Q/S2701T).
T2 construct: 1b S282T; made in house; host or cells: E. coli Rosetta DE3
As to the kind of experiment: Inhibition assay (chain termination) with construct 1b S282T. It counts as biochemical, hepatitis C virus genotype 1b BK isolate.

Data set [5] deals with HCV polymerase 1b S282T. The description is as above. It is filed as biochemical, hepatitis C virus genotype 1b BK isolate. To be noted: upon introduction of S282T into 1b WT.
The target in data set [6] is T3, HCV NS5B polymerase 1b Δ8 (Hepatitis C virus genotype 1b, UniProt P26663, DEL2863-2870/E2505Q/E2506Q/K2533R/L2466Q/R2963Q/S2872G/Y2871G).
T3 construct: 1bΔ8; made in house; host or cells: E. coli Rosetta DE3
As to the kind of experiment: Inhibition assay (chain termination) with construct 1b Δ8. It is filed as biochemical, hepatitis C virus genotype 1b BK isolate. The settings on record: for IC50: one value or range given for both 1b WT and 1b Δ8.

For data set [7], the target named is T4, HCV NS5B polymerase 1b WT (Hepatitis C virus genotype 1b, UniProt P26663, E2505Q/E2506Q/K2533R/L2466Q/R2963Q).
T4 construct: 1b WT; made in house; host or cells: E. coli Rosetta DE3
Nature of the data set: Inhibition assay (chain termination) with construct 1b WT. It is filed as biochemical, hepatitis C virus genotype 1b BK isolate. To be noted: one value or range given for both 1b WT and 1b Δ8. The method, then: For constructs 1bWT and 1bΔ8, inhibition assays were performed in a 120 μL mixture containing 5 μM of the four natural ribonucleotides, [α-^32P]UTP, 20 ng/μL of genotype 1b (−) IRES RNA template, 1 unit/μL of SUPERase.In (Ambion, Austin, Tex.), 40 ng/μL of NS5B, 5 mM MgCl2, and 2 mM DTT in 50 mM HEPES buffer (pH 7.5). The reaction was incubated at 27° C. and a 20 μL aliquot was taken at 0, 30, 60, 90, and 120 minute time points and quenched by mixing with 80 μL of stop solution (12.5 mM EDTA, 2.25 M NaCl, and 225 mM sodium citrate). The radioactive RNA products were separated from unreacted substrates using a Hybond N+ membrane (GE Healthcare) as described previously (FIG. 2). The products were visualized and quantified using a phosphorimager. The reaction rates and IC 50 values were calculated using GraphFit.

Data set [8] has as its target T5, HCV NS5B polymerase 2a Δ8 (Hepatitis C virus genotype 2a, UniProt Q99IB8, DEL2886-2893/E2528Q/E2529Q/S2895G/Y2894G).
T5 construct: 2aΔ8; made in house; host or cells: E. coli Rosetta DE3
Nature of the data set: Inhibition assay (chain termination) with construct 2a Δ8. It counts as biochemical, hepatitis C virus genotype 2a JFH1 isolate. The settings on record: 15 minutes incubation, 27° C. The method, then: (§1) For constructs 2aWT and 2aΔ8, inhibition assays were performed in a 20 μL mixture containing varying concentrations of PSI-352666 or 2′-C-MeGTP, 5 μM of the four natural ribonucleotides, [α-^32P]UTP, 20 ng/μL of genotype 1b (−) IRES RNA template, 1 unit/μL of SUPERase.In (Ambion, Austin, Tex.), 40 ng/μL of NS5B, 5 mM MgCl2, and 2 mM DTT in 50 mM HEPES buffer (pH 7.5).
(§2) The reaction was incubated at 27° C. and quenched by adding 80 μL of stop solution after 60 minutes incubation with 2aWT or 15 minutes incubation with 2aΔ8. The radioactive RNA products were separated from unreacted substrates using a Hybond N+ membrane (GE Healthcare) as described previously^28. The products were visualized and quantified using a phosphorimager. The reaction rates and the IC50 values were calculated using GraphFit (Erithacus Software, Horley, Surrey, UK).

The target in data set [9] is T6, HCV NS5B polymerase 2a WT (Hepatitis C virus genotype 2a, UniProt Q99IB8, E2528Q/E2529Q).
T6 construct: 2a WT; made in house; host or cells: E. coli Rosetta DE3
As to the kind of experiment: Inhibition assay (chain termination) with construct 2a WT. It counts as biochemical, hepatitis C virus genotype 2a JFH1 isolate. The settings on record: 60 minutes incubation, 27° C. The method, then: as §1, §2

For data set [10], the system named is genotype 1b (−) IRES RNA template. As to the kind of experiment: De novo RNA synthesis activity of HCV NS5B polymerase constructs. It counts as biochemical, hepatitis C virus. To be noted: 2a Δ8 with Gly-Gly linker compared to wild-type 2a. The procedure:
HCV activity assays were performed in a 200 μL mixture containing 1 μM of the four natural ribonucleotides, [α-^32P]UTP, 20 ng/μL of genotype 1b (−) IRES RNA template, 1 unit/μL of SUPERase.In (Ambion, Austin, Tex.), 40 ng/μL of NS5B, 5 mM MgCl2, and 2 mM DTT in 50 mM HEPES buffer (pH 7.5). The reaction was incubated at 27° C. and 20 μL aliquots were taken at the desired time points and quenched by mixing in 80 μL of stop solution (12.5 mM EDTA, 2.25 M NaCl, and 225 mM sodium citrate).

Values joined by “and” are separate entries in the source; they are usually repeats but may differ in a detail not shown here. Equal entries are not always repeated.

Experimental findings from patent US20150087045A1, “CRYSTAL STRUCTURE OF HCV […] AND METHODS OF USE” (GILEAD P[…], priority 2012, published 2015) are described below.

On to “2a WT: HCV polymerase genotype 2a JFH-1 construct, SEQ ID NO:3, C-terminal 21 amino acids replaced by hexahistidine tag, E86Q and E87Q”, for which the “melting temperature (Tm)” value in [1] is ~41 °C.

As usually defined, the IC50 is the point on the concentration scale where inhibition reaches its midpoint. Higher therefore signals weaker potency in that assay. Turning to `C[C@@]1(O)[C@H](O)[C@@H](COP(=O)(O)OP(=O)(O)OP(=O)(O)O)O[C@H]1n1cnc2c(=O)[nH]c(N)nc21` [2′-C-MeGTP], the concentration for half-maximal inhibition (IC50) in data set [2] was > 100 µM; on HCV polymerase 1b S282T [4], > 100 µM; in [6], 7 to 13 µM; in data set [7] it was 7 to 13 µM. Moreover, the “increase in IC50” value (in data set [3]; with HCV polymerase 1b S282T [5]) was > 10 fold in each case.

As for `C[C@@]1(F)[C@H](O)[C@@H](COP(=O)(O)OP(=O)(O)OP(=O)(O)O)O[C@H]1n1cnc2c(=O)[nH]c(N)nc21` [PSI-352666], the IC50 is 9 to 14 µM in [2]; 6 µM and 6.41 µM in data set [8]; 9 to 14 µM against HCV polymerase 1b S282T [4]; 4 µM in data set [6]; 6.05 ± 0.82 µM in data set [9]; 4 µM in data set [7]. Besides, the “increase in IC50” value (in [3]; in the data set on HCV polymerase 1b S282T [5]) was ~2.5 fold in each case. For the same compound, the “chain termination: elongation of the terminated product (*GGCX)” value in [6] (in the presence of the next correct incoming nucleotide (ATP), 0-60 min) was “not further elongated”.

As to “2a Δ8: 2a WT with the β-hairpin replaced by a Gly-Gly linker, SEQ ID NO:8”, in data set [10], the “de novo RNA synthesis activity compared to 2a WT” value is listed as > 100 fold. Besides, in data set [1], the “melting temperature (Tm)” value was ~35 °C.
